The values that follow come from patent US4788214A, “3,4-dihydro-2H-1-benzopyran derivatives” (Hoffman-La Roche Inc., priority 1986, dated 1988).

For test [1], the system named is leukotriene D4 induced bronchoconstriction. The test is described as follows: Oral Testing of Leukotriene Antagonists, leukotriene D4 challenge. The format is in vivo, guinea pig (Hartley strain). To be noted: Cavia porcellus, 2 h, p.o., two hours prior to challenge. As to the method: (c) Oral Testing of Leukotriene Antagonists
Male guinea pigs (Hartley strain, Charles River) weighing 400 to 600 g were anesthetized with urethane (2 g/kg) intraperitoneally and a polyethylene cannula was inserted into the jugular vein for intravenous drug administration. Tracheal pressure (cm water) was recorded from a Statham pressure transducer. After surgical preparation of the animals, a period of time was allowed for spontaneous breathing to stabilize. […] Two minutes later, spontaneous breathing was arrested with succinylcholine chloride (1.2 mg/kg, i.v.) and the animals ventilated with a Harvard (Model #680) small animal respirator set at 40 breaths per minute and 4.0 cc stroke volume. The animals were challenged with a maximum constrictory dose of either leukotriene C4 or leukotriene D4 or leukotriene E4 (25 μg/kg, i.v.) at 5 minutes. Control vehicle or test drug (adjusted to an alkaline pH where necessary for drug solubilization) was administered (10 mg/kg, p.o.) two hours prior to challenge with leukotriene. In order to determine the ID50 for a test drug, the dose is varied from 10 mg/kg, p.o. to 100, 50, 30, 20, 5, 3 and 1 mg/kg, p.o.
In order to determine oral duration of action, the time between exposure to test drug and challenge with leukotriene is varied.

For test [2], the system named is leukotriene E4 bronchoconstriction. Briefly: Guinea Pig Bronchoconstriction, In Vivo (Aerosol), leukotriene E4 challenge. The arrangement: species or system guinea pig (Hartley strain). As to conditions: five minute exposure, drug concentration of aerosol solution (w/v), leukotriene E4 i.v. As to the method: (b) Guinea Pig Bronchoconstriction, In Vivo (Aerosol):
Male guinea pigs (Hartley strain) weighing 300 to 500 g are anesthetized with urethane (2 g/kg) intraperitoneally and a polyethylene cannula is inserted into the jugular vein for drug administration. Tracheal pressure is recorded from a cannula inserted in the trachea and connected to a Statham pressure transducer. After surgical preparation of the animals, a period of time is allowed for pulmonary functions to stabilize. The test compound is administered according to the following protocol. Propanolol (0.1 mg/kg) is administered intravenously while the animals breathed spontaneously. Five minutes thereater, the animals are exposed for a five minute period to a 1% (w/v) aerosol solution of test compound (adjusted to an alkaline pH where necessary for drug solubilization) or to distilled water of thhe appropriate pH (for control purposes). A Monaghan (Model 750) ultrasonic nebulizer is used to administer all test compounds by inhalation. The nebulizer ultrasonic frequency is adjusted to produce particles in the 1-8μ diameter range (average 3μ). Aqueous solutions are prepared freshly and introduced into the chamber of the nebulizer. The output of the nebulizer is made available to the animal by directing a bias flow of aerosol through a Y tube connected to the trachel cannula. At the end of the exposure period, the animals are paralyzed with succinylcholine (1.2 mg/kg, i.v.) and mechanically respirated (Harvard rodent respirator) at 40 breaths/minute and 2.5 cc tidal volume. Animals are then challenged with a maximum constrictory dose of leukotriene E4 delivered intravenously 30 seconds after administration of the succinylcholine.
The change (cm H2 O) between pre and peak ventilatory pressure readings averaged for three control animals and five drug treated animals. The percent inhibition is calculated from the following formula: [formula] When various drug concentrations are tested, the percent inhibition at each concentration is plotted as log concentration (abscissa) versus percent inhibition (ordinate) and the IC50 is determined from linear regression analysis.

Test [3] deals with SRS-A-induced constriction of the guinea pig ileum. Briefly: Guinea Pig Ileum, In Vitro (SRS-A antagonism). The format is cell-based. To be noted: Cavia porcellus; SRS-A-induced constriction, 37° C., SRS-A at its EC50; read-out: In vitro Guinea Pig ileum IC50. On the procedure:
(a) Guinea Pig Ileum, In Vitro:
The guinea pig ileum bioassay system has been described by Orange Austen, Adv. Immunol. […] A 1.5 cm segment is removed from animals weighing 300-400 g and suspended in an organ bath containing 10 ml of Tyrodes solution with 10^-6 M atropine sulfate and 10^-6 M pyrilamine maleate. […] The SRS-A utilized in this screen is obtained by challenging chopped lung fragments from actively sensitized guinea pigs with egg albumin, in vitro. A dose-response curve to SRS-A challenge is established for the ileum. […] The drug concentration which inhibits, by 50%, the SRS-A-induced constriction of the guinea pig ileum is determined.

The inhibition is the share of the control response that was lost under treatment. In test [1], `CCCc1c(OCCCCCOc2cc3c(cc2C(C)=O)CCC(CCCCC(=O)O)O3)ccc(C(C)=O)c1O` (racemic) [racemic-6-acetyl-7-[5-(4-acetyl-3-hydroxy-2-propylphenoxy)pentyloxy]-3,4-dihydro-2H-1-benzopyran-2-pentanoic acid] displayed an inhibition at 10 mg/kg of 46 ± 14%.
As a reminder, the IC50 is the concentration needed to halve the response being measured. For `CCCc1c(OCCCOc2cc3c(cc2C(C)=O)CCC(C(=O)O)O3)ccc(C(C)=O)c1O` (racemic) [racemic-6-acetyl-7-[3-(4-acetyl-3-hydroxy-2-propylphenoxy)propoxy]-3,4-dihydro-2H-1-benzopyran-2-carboxylic acid], in test [2], the “Guinea Pig Bronchoconstriction In vivo aerosol - IC50” value amounted to 0.20%. In test [3], the IC50 turned out to be 100 nM.
On the same counts, the results for `CCCc1c(OCCCOc2ccc3c(c2C(C)=O)OC(C(=O)O)CC3)ccc(C(C)=O)c1O` (racemic) [racemic-8-acetyl-7-[3-(4-acetyl-3-hydroxy-2-propylphenoxy)propoxy]-3,4-dihydro-2H-1-benzopyran-2-carboxylic acid] are 0.59% and 300 nM.
Turning to `CCCc1c(OCCCCCOc2cc3c(cc2C(C)=O)CCC(C(=O)O)O3)ccc(C(C)=O)c1O` (racemic) [racemic-6-acetyl-7-[5-(4-acetyl-3-hydroxy-2-propylphenoxy)pentyloxy]-3,4-dihydro-2H-1-benzopyran-2-carboxylic acid], in test [2], the “Guinea Pig Bronchoconstriction In vivo aerosol - IC50” value worked out at 0.052%. In test [3], the IC50 amounted to 60 nM.
As to `CCCc1c(OCCCOc2ccc3c(c2CCC)OC(C)(CCC(=O)O)CC3)ccc(C(C)=O)c1O` (racemic) [racemic-7-[3-(4-acetyl-3-hydroxy-2-n-propylphenoxy)propoxy]-3,4-dihydro-2-methyl-8-n-propyl-2H-1-benzopyran-2-propanoic acid], the “Guinea Pig Bronchoconstriction In vivo aerosol - IC50” value in test [2] turned out to be 0.71%. In addition, the IC50 in test [3] amounted to 500 nM.
For the compound `CCCc1c(OCCCOc2ccc3c(c2)CCC(CC(=O)O)O3)ccc(C(C)=O)c1O` (racemic) [rac-6-[3-(4-Acetyl-3-hydroxy-2-propylphenoxy)propoxy]-3,4-dihydro-2H--1-benzopyran-2-acetic acid], in test [2], the “Guinea Pig Bronchoconstriction In vivo aerosol - IC50” value came out at 1.0%. In test [3], the IC50 stood at 400 nM.
Turning to `CCCc1c(OCCCOc2cc3c(cc2C(C)=O)OC(C(=O)O)CC3)ccc(C(C)=O)c1O` (racemic) [racemic-7-acetyl-6-[3-(4-acetyl-3-hydroxy-2-propylphenoxy)propoxy]-3,4-dihydro-2H-1-benzopyran-2-carboxylic acid], the “Guinea Pig Bronchoconstriction In vivo aerosol - IC50” value in test [2] turned out to be 0.34%. For the same compound, the half-maximal inhibitory concentration (IC50) in test [3] is 200 nM.
As to `CCCc1c(OCCCCCCCOc2cc3c(cc2C(C)=O)CCC(C(=O)O)O3)ccc(C(C)=O)c1O` (racemic) [racemic-6-acetyl-7-[7-(4-acetyl-3-hydroxy-2-propylphenoxy)heptyloxy]-3,4-dihydro-2H-1-benzopyran2-carboxylic acid], the “Guinea Pig Bronchoconstriction In vivo aerosol - IC50” value in test [2] is listed as 1.0%. Besides, the IC50 in test [3] was 1000 nM.
The corresponding values for `CCCc1c(OCCCOc2ccc3c(c2)CCC(C(=O)O)O3)ccc(C(C)=O)c1O` (racemic) [racemic-6-[3-(4-acetyl-3-hydroxy-2-propylphenoxy)propoxyl]3,4-dihydro-2H-1-benzopyran-2-carboxylic acid] are 0.50% and 500 nM.
For the compound `CCCc1c(OCCCOc2ccc3c(c2)OCC(C(=O)O)C3)ccc(C(C)=O)c1O` (racemic) [racemic 7-[3-(4-acetyl-3-hydroxy-2-propylphenoxy)propoxy]-3,4-dihydro-2H-1-benzopyran-3-carboxylic acid], the “Guinea Pig Bronchoconstriction In vivo aerosol - IC50” value in test [2] is reported as over 1.0%. The IC50 in test [3] is 100 nM.
In the case of `CCCc1c(OCCCOc2ccc3c(c2)CCC(C)(C(=O)O)O3)ccc(C(C)=O)c1O` (racemic) [racemic-6-[3-(4-acetyl-3-hydroxy-2-propylphenoxy)propoxy]-3,4-dihydro-2-methyl-2H-1-benzopyran-2-carboxylic acid], the “Guinea Pig Bronchoconstriction In vivo aerosol - IC50” value in test [2] is recorded as 0.20%. The IC50 in test [3] is 100 nM.
`CCCc1c(OCCCOc2ccc3c(c2)OC(C(=O)O)CC3)ccc(C(C)=O)c1O` (racemic) [racemic-7-[3-(4-acetyl-3-hydroxy-2-propylphenoxy)propoxy]-3,4-dihydro-2H-1-benzopyran-2-carboxylic acid]: the “Guinea Pig Bronchoconstriction In vivo aerosol - IC50” value in test [2] worked out at 0.14%. For the same compound, the IC50 in test [3] was found to be 60 nM.
Take `CCCc1c(OCCCOc2c(C)c(C)c3c(c2C)CCC(C)(C(=O)O)O3)ccc(C(C)=O)c1O` (racemic) [racemic-6-[3-(4-acetyl-3-hydroxy-2-propylphenoxy)propoxy]-3,4-dihydro-2,5,7,8-tetramethyl-2H-1-benzopyran-2-carboxylic acid]: the “Guinea Pig Bronchoconstriction In vivo aerosol - IC50” value in test [2] is listed as 1.0%. Further, the IC50 in test [3] was found to be 100 nM.
